Assay results from US7087552B2, “Modification of floral scent in flowering plants” (Ball Horticultural Company, priority 1999, dated 2006).

Experiments:
[1] = system: intact root systems of soybean seedlings; conditions: intact root systems exposed; cited from earlier work
Cut Snapdragon Flowers [2] = assay: Headspace GC-MS of floral scent emission from cut snapdragon flowers placed in treatment solutions; type: in vivo; conditions: for Percentage amount of total floral scent emitted compared to the 24-hour period prior to harvest: 5% (w/v) sucrose and/or 0.1 mg/ml benzoic acid
Procedure: Volatiles emitted from snapdragon flowers were determined by headspace analysis, as described previously (Raguso and […], 1995, Plant Systematics and Evolution 194:55-67). […] (light /dark) temperature cycle. Flowers attached to the plant were enclosed in a polyvinylacetate bag (Reynolds, Inc.) and purified air was pumped over the flower at a flow rate of 250 ml/minute. […] Ionization energy was set at 70 eV. Column temperature programming was: 50° C. for 1 minute, then heated to 240° C. at a rate of 10°/minute. The MS was scanned from 41 to 400 AMU (atomic mass units). Simultaneous collections of ambient volatiles were used as controls. Components were first identified through a computer database containing several thousand mass spectra and confirmed by comparison of retention times and mass spectra of authentic standards. Headspace collection of greenhouse-grown, inflorescence-bearing snapdragons (Maryland True Pink, PanAmerican Seed Company, West Chicago, Ill.) was carried out for 24 hours. The snapdragon inflorescence-bearing stems for this experiment were carefully chosen to have a similar number of same-aged flowers. […] The sucrose level chosen was based upon the conclusions reached by Ichimura and Hisamatsu (1999, Journal for the Japanese Society for Horticultural Science, 68:61-66) that 5% (w/v) sucrose was the optimum sucrose level for maximum vase life of cut snapdragon flowers.

[3] = system: hypocotyl cells in light-grown, intact Nicotiana plumbaginifolia seedlings; conditions: 1 mM (approximately 0.125 mg/ml); cited from earlier work
IS10a = conditions: tobacco cells exposed to 200–400 mM; cited from earlier work
Potted Snapdragon Plant = assay: Spray application to an intact potted snapdragon plant, headspace floral scent emission
Procedure: In this experiment, a flowering snapdragon plant was selected and the headspace collected for a single 24-hour period. After this time, the inflorescence-bearing stem was sprayed to the point of runoff with a solution of 1 mg/ml benzoic acid. […] The flowers were allowed to dry and the headspace collected for the next 24 hours. […] However, during this 24-hour period after spray application of benzoic acid, several interesting observations were made.

Petunia Cuttings = assay: Headspace GC-MS of methylbenzoate emission from Mitchell petunia cuttings; type: in vivo; conditions: 5% (w/v) sucrose with or without 0.1 mg/ml benzoic acid
Procedure: The petunia variety called ‘Mitchell’ is an older, non-commercial (i.e., research use only) cultivar (generally available from academic research institutions) that was previously known to emit floral scent, especially during the evening hours. […] With this identification of floral scent in hand, the uptake experiments carried out in Example 2 on cut snapdragon stems were repeated with inflorescence-bearing Mitchell petunia cuttings.
Headspace collection was performed on two intact flowers for a 24-hour period prior to harvest to measure the amount of methylbenzoate emitted. This methylbenzoate emission was measured by GC-MS and these values set at 100%. The two inflorescence-bearing stems were harvested and immediately were placed into a vessel containing 5% (w/v) sucrose or a vessel containing 5% (w/v) sucrose supplemented with 0.1 mg/ml benzoic acid. Headspace collection was carried out as described in Example 2 on the cuttings for five 24-hour periods after harvesting. During the fifth 24-hour period, the flowers on both cuttings eventually senesced and collapsed.

Cut Snapdragon Flowers [4] = assay: Floral scent emission of cut snapdragon flowers after 48 hours at 4° C. in darkness; type: in vivo; conditions: collected for 5 days at ambient temperature in the light after 48 hours at 4° C. in darkness; 5% (w/v) sucrose with or without 0.1 mg/ml benzoic acid
Procedure: Inflorescence-bearing snapdragon stems were harvested and incubated in water for 48 hours at 4° C. in darkness (to simulate post-harvest conditions at a commercial grower's facility and during shipping). […] The floral scent emission from the flowers was then collected for 5 days, and the total emission compared between the various treatments.

spotted cucumber beetle = conditions: in vivo; cited from earlier work
H. lineata moths = conditions: in vivo; cited from earlier work
[5] = system: snapdragon inflorescence-bearing stems; conditions: in vivo, 0.1 mg/ml
Procedure: (§1) To determine whether other floral scent precursors were taken up through the cut end of stems, and whether these compounds were transported in flowers other than snapdragon, the following experiment was performed.

[6] = system: lisianthus inflorescence-bearing stems; conditions: lisianthus (Eustoma), in vivo, 0.1 mg/ml
Procedure: as §1

Snapdragon Petals [7] = assay: Conversion of 14C-labelled floral scent precursor to 14C-methylbenzoate in situ by excised snapdragon petal lobes (headspace, scintillation counting); conditions: for nanocuries of 14C-methylbenzoate from 14C-phenylalanine: 220 nCi applied
Procedure: Ten lower lobes of snapdragon flowers (variety Maryland True Pink, PanAmerican Seed Company, West Chicago, Ill.) were excised from the rest of the flower. Two microliters of ^14C-benzoic acid (500 nanocuries, or nCi) were pipetted onto the cut edge of the lower lobes. At this time, the lobes were allowed to sit for 10 minutes to permit uptake of the radiolabeled benzoic acid. The lobes were placed cut edge down on wet filter paper and the headspace collected over the course of the next four hours. The columns which trapped the volatiles were changed at 30, 60, 120 and 240 minutes after the start of incubation and eluted with 3 mls of hexane. The eluate (1.5 mls) was then analyzed in a liquid scintillation counter for the presence and amount of ^14C-methylbenzoate. The identity of ^14C-methylbenzoate was verified by its retention time on a thin-layer chromatography plate. As can be observed below in Table 2a, emission of ^14C-methylbenzoate was first detected within one hour after the start of the incubation period. […] This increase was even more dramatic over the next 2 hours as the amount of methylbenzoate emissions increased over 5-fold (compared to the first 2-hour collections period).
In additional experiments (see Table 2b below), an essentially identical radiolabeled experiment was performed in which ^14C-phenylalanine (220 nCi) was substituted for ^14C-benzoic acid as the radiolabeled floral scent precursor. As was observed previously with ^14C-benzoic acid, the ^14C-phenylalanine was rapidly converted to ^14C-methylbenzoate. Within just 30 minutes after the start of the incubation period, ^14C-methylbenzoate was detected. The amount of ^14C-methylbenzoate increased rapidly during the following three successive collection periods, respectively, (the rate increasing during each successive period).

Snapdragon Petals [8] = assay: as above; conditions: Time 240 min; 220 nCi applied
[9] = Post-Spray 24 hours, 1 mg/ml sprayed to runoff

O=C(O)c1ccccc1 [BA, benzoic acid]
electrolyte leakage [1]: rapid increase in electrolyte leakage | Methylbenzoate emitted, percentage of amount emitted during the 24-hour period prior to harvest (Cut Snapdragon Flowers [2]; Day 1 after harvest): 84% | Myrcene emitted, percentage of amount emitted during the 24-hour period prior to harvest (Cut Snapdragon Flowers [2]; Day 1 after harvest): 158% | Ocimene emitted, percentage of amount emitted during the 24-hour period prior to harvest (Cut Snapdragon Flowers [2]; Day 1 after harvest): 139% | Percentage amount of total floral scent emitted compared to the 24-hour period prior to harvest (Cut Snapdragon Flowers [2]; Day 1 after harvest): 120^ % | Methylbenzoate emitted, percentage of amount emitted during the 24-hour period prior to harvest (Cut Snapdragon Flowers [2]; Day 2 after harvest): 91% | Myrcene emitted, percentage of amount emitted during the 24-hour period prior to harvest (Cut Snapdragon Flowers [2]; Day 2 after harvest): 142% | Ocimene emitted, percentage of amount emitted during the 24-hour period prior to harvest (Cut Snapdragon Flowers [2]; Day 2 after harvest): 122% | Percentage amount of total floral scent emitted compared to the 24-hour period prior to harvest (Cut Snapdragon Flowers [2]; Day 2 after harvest): 114% | Methylbenzoate emitted, percentage of amount emitted during the 24-hour period prior to harvest (Cut Snapdragon Flowers [2]; Day 3 after harvest): 8% | Myrcene emitted, percentage of amount emitted during the 24-hour period prior to harvest (Cut Snapdragon Flowers [2]; Day 3 after harvest): 23% | Ocimene emitted, percentage of amount emitted during the 24-hour period prior to harvest (Cut Snapdragon Flowers [2]; Day 3 after harvest): 20% | Percentage amount of total floral scent emitted compared to the 24-hour period prior to harvest (Cut Snapdragon Flowers [2]; Day 3 after harvest): 15% | Methylbenzoate emitted, percentage of amount emitted during the 24-hour period prior to harvest (Cut Snapdragon Flowers [2]; Day 4 after harvest): 4% | Myrcene emitted, percentage of amount emitted during the 24-hour period prior to harvest (Cut Snapdragon Flowers [2]; Day 4 after harvest): 26% | Ocimene emitted, percentage of amount emitted during the 24-hour period prior to harvest (Cut Snapdragon Flowers [2]; Day 4 after harvest): 18% | Percentage amount of total floral scent emitted compared to the 24-hour period prior to harvest (Cut Snapdragon Flowers [2]; Day 4 after harvest): 16% | Methylbenzoate emitted, percentage of amount emitted during the 24-hour period prior to harvest (Cut Snapdragon Flowers [2]; Day 5 after harvest): 3% | Myrcene emitted, percentage of amount emitted during the 24-hour period prior to harvest (Cut Snapdragon Flowers [2]; Day 5 after harvest): 18% | Ocimene emitted, percentage of amount emitted during the 24-hour period prior to harvest (Cut Snapdragon Flowers [2]; Day 5 after harvest): 18% | Percentage amount of total floral scent emitted compared to the 24-hour period prior to harvest (Cut Snapdragon Flowers [2]; Day 5 after harvest): 12% | membrane potential [3]: rapid and weak hyperpolarization | transcription of IS10a (IS10a): induce the transcription | phytotoxicity (Potted Snapdragon Plant; 1 mg/ml spray, after 24 hours): evidence of phytotoxicity | Methylbenzoate emitted, percentage of amount emitted during the 24-hour period prior to spraying (Potted Snapdragon Plant; [9]): 152% | Myrcene emitted, percentage of amount emitted during the 24-hour period prior to spraying (Potted Snapdragon Plant; [9]): 52% | Ocimene emitted, percentage of amount emitted during the 24-hour period prior to spraying (Potted Snapdragon Plant; [9]): 58% | Total floral scent emitted, percentage of amount emitted during the 24-hour period prior to spraying (Potted Snapdragon Plant; [9]): 98% | contribution of the two monoterpenes to the overall floral scent (Potted Snapdragon Plant; after spraying 1 mg/ml (57% prior to spraying)): 33%

OC[C@H]1O[C@@](CO)(O[C@H]2O[C@H](CO)[C@@H](O)[C@H](O)[C@H]2O)[C@@H](O)[C@@H]1O [Sucrose, sucrose, reference compound]
Methylbenzoate emitted, percentage of amount emitted during the 24-hour period prior to harvest (Cut Snapdragon Flowers [2]; Day 1 after harvest): 78% | Myrcene emitted, percentage of amount emitted during the 24-hour period prior to harvest (Cut Snapdragon Flowers [2]; Day 1 after harvest): 78% | Ocimene emitted, percentage of amount emitted during the 24-hour period prior to harvest (Cut Snapdragon Flowers [2]; Day 1 after harvest): 88% | Percentage amount of total floral scent emitted compared to the 24-hour period prior to harvest (Cut Snapdragon Flowers [2]; Day 1 after harvest): 85^ % | Methylbenzoate emitted, percentage of amount emitted during the 24-hour period prior to harvest (Cut Snapdragon Flowers [2]; Day 2 after harvest): 30% | Myrcene emitted, percentage of amount emitted during the 24-hour period prior to harvest (Cut Snapdragon Flowers [2]; Day 2 after harvest): 55% | Ocimene emitted, percentage of amount emitted during the 24-hour period prior to harvest (Cut Snapdragon Flowers [2]; Day 2 after harvest): 58% | Percentage amount of total floral scent emitted compared to the 24-hour period prior to harvest (Cut Snapdragon Flowers [2]; Day 2 after harvest): 48% | Percentage amount of methylbenzoate emitted compared to the 24-hour period prior to harvest (Petunia Cuttings; Day 1 after harvest): 62^2% | Percentage amount of methylbenzoate emitted compared to the 24-hour period prior to harvest (Petunia Cuttings; Day 2 after harvest): 76% | Percentage amount of methylbenzoate emitted compared to the 24-hour period prior to harvest (Petunia Cuttings; Day 3 after harvest): 48% | Percentage amount of methylbenzoate emitted compared to the 24-hour period prior to harvest (Petunia Cuttings; Day 4 after harvest): 33% | Percentage amount of methylbenzoate emitted compared to the 24-hour period prior to harvest (Petunia Cuttings; Day 5 after harvest (flowers senesced and collapsed)): 23% | Total Emission (Cut Snapdragon Flowers [4]): 30^1 Units of total floral scent

O=CC=Cc1ccccc1 [cinnamaldehyde]
attraction of the beetle (spotted cucumber beetle): attracted

O=C(O)C=Cc1ccccc1 [cinnamic acid]
electrolyte leakage [1]: rapid increase in electrolyte leakage

OCC=Cc1ccccc1 [cinnamyl alcohol]
attraction of the beetle (spotted cucumber beetle): attracted

COC(=O)c1ccccc1 [methylbenzoate]
EAG response (H. lineata moths): especially strong

O=C(O)c1ccccc1O [salicylic acid]
time after exposure at which leaf necrosis was first noticeable [5]: ≤ 2 days | time of exposure until leaf necrosis was observed [6]: > 5 days

^14C-benzoic acid
nanocuries of 14C-methylbenzoate from 14C-benzoic acid (Snapdragon Petals [7]; Time 0 min, 500 nCi applied to ten lower lobes): 0.030 nCi | nanocuries of 14C-methylbenzoate from 14C-benzoic acid (Snapdragon Petals [7]; Time 30 min, 500 nCi applied): 0.036 nCi | nanocuries of 14C-methylbenzoate from 14C-benzoic acid (Snapdragon Petals [7]; Time 60 min, 500 nCi applied): 0.354 nCi | nanocuries of 14C-methylbenzoate from 14C-benzoic acid (Snapdragon Petals [7]; Time 120 min, 500 nCi applied): 2.544 nCi | nanocuries of 14C-methylbenzoate from 14C-benzoic acid (Snapdragon Petals [7]; Time 240 min, 500 nCi applied): 13.226 nCi

^14C-phenylalanine
nanocuries of 14C-methylbenzoate from 14C-phenylalanine (Snapdragon Petals [8]): 25.387 nCi | nanocuries of 14C-methylbenzoate from 14C-phenylalanine (Snapdragon Petals [7]; Time 0 min): 0.295 nCi | nanocuries of 14C-methylbenzoate from 14C-phenylalanine (Snapdragon Petals [7]; Time 30 min): 0.983 nCi | nanocuries of 14C-methylbenzoate from 14C-phenylalanine (Snapdragon Petals [7]; Time 60 min): 1.874 nCi | nanocuries of 14C-methylbenzoate from 14C-phenylalanine (Snapdragon Petals [7]; Time 120 min): 5.635 nCi
